Assay results from ChEMBL document CHEMBL1201862, “PubChem BioAssay data set” (2004).
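1) Cells in 96-well plates. 2) Compound, 48 h, 5 concentrations. 3) Linear interpolation between surrounding doses. 4) Unreached endpoint = highest concentration. GI50 = concentration required for 50% inhibition of growth.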 The source made the active and inactive calls. Cut-off read from the data, not from the text of the source: active = GI50 up to about 1.1 µM and inactive = higher.

Tests used:
Test in all cases: NCI tumour cell line growth inhibition, 48 h
[1] = test system: SF-539
[2] = test system: KM12
[3] = test system: SK-MEL-2
[4] = test system: RPMI-8226
[5] = test system: K562
[6] = test system: A498
[7] = test system: RXF 393
[8] = test system: HOP-62
[9] = test system: DU-145
[10] = test system: 786-0
[11] = test system: MCF7
[12] = test system: CAKI-1
[13] = test system: MDA-MB-231
[14] = test system: Hs-578T
[15] = test system: OVCAR-4
[16] = test system: SK-MEL-28
[17] = test system: MOLT-4
[18] = test system: SF-268
[19] = test system: OVCAR-8
[20] = test system: HCC 2998
[21] = test system: TK-10
[22] = test system: T47D
[23] = test system: M14
[24] = test system: OVCAR-3
[25] = test system: MDA-N
[26] = test system: SN12C
[27] = test system: HT-29
[28] = test system: NCI/ADR-RES
[29] = test system: SK-OV-3
[30] = test system: EKVX
[31] = test system: IGROV-1
[32] = test system: SK-MEL-5
[33] = test system: UACC-62
[34] = test system: ACHN
[35] = test system: UO-31
[36] = test system: LOX IMVI
[37] = test system: UACC-257
[38] = test system: OVCAR-5
[39] = test system: SNB-75
[40] = test system: HCT-15
[41] = test system: HCT-116
[42] = test system: U-251
[43] = test system: NCI-H226
[44] = test system: NCI-H522
[45] = test system: COLO 205
[46] = test system: SW-620
[47] = test system: HOP-92
[48] = test system: MDA-MB-435
[49] = test system: Malme-3M
[50] = test system: SR
[51] = test system: PC-3
[52] = test system: SNB-19
[53] = test system: SF-295
[54] = test system: HL-60
[55] = test system: A549
[56] = test system: CCRF-CEM
[57] = test system: NCI-H23
[58] = test system: NCI-H460

C/N=C/N(C)c1c2ccccc2nc2ccccc12
GI50 [1]: > 100 µM (inactive)
GI50 [2]: > 100 µM (inactive)
GI50 [3]: > 100 µM (inactive)
GI50 [4]: > 100 µM (inactive)
GI50 [5]: > 100 µM (inactive)
GI50 [6]: > 100 µM (inactive)
GI50 [7]: > 100 µM (inactive)
GI50 [8]: > 100 µM (inactive)
GI50 [9]: > 100 µM (inactive)
GI50 [10]: > 100 µM (inactive)
GI50 [11]: > 100 µM (inactive)
GI50 [12]: > 100 µM (inactive)
GI50 [13]: > 100 µM (inactive)
GI50 [14]: > 100 µM (inactive)
GI50 [15]: > 100 µM (inactive)
GI50 [16]: > 100 µM (inactive)
GI50 [17]: > 100 µM (inactive)
GI50 [18]: > 100 µM (inactive)
GI50 [19]: > 100 µM (inactive)
GI50 [20]: > 100 µM (inactive)
GI50 [21]: > 100 µM (inactive)
GI50 [22]: 85.7 µM (inactive)
GI50 [23]: > 100 µM (inactive)
GI50 [24]: > 100 µM (inactive)
GI50 [25]: > 100 µM (inactive)
GI50 [26]: > 100 µM (inactive)
GI50 [27]: > 100 µM (inactive)
GI50 [28]: > 100 µM (inactive)
GI50 [29]: > 100 µM (inactive)
GI50 [30]: > 100 µM (inactive)
GI50 [31]: > 100 µM (inactive)
GI50 [32]: > 100 µM (inactive)
GI50 [33]: > 100 µM (inactive)
GI50 [34]: > 100 µM (inactive)
GI50 [35]: 11.6 µM (inactive)
GI50 [36]: > 100 µM (inactive)
GI50 [37]: > 100 µM (inactive)
GI50 [38]: > 100 µM (inactive)
GI50 [39]: 90.6 µM (inactive)
GI50 [40]: > 100 µM
GI50 [41]: > 100 µM (inactive)
GI50 [42]: > 100 µM (inactive)
GI50 [43]: > 100 µM (inactive)
GI50 [44]: > 100 µM (inactive)
GI50 [45]: > 100 µM (inactive)
GI50 [46]: > 100 µM (inactive)
GI50 [47]: 64.7 µM (inactive)
GI50 [48]: > 100 µM (inactive)
GI50 [49]: > 100 µM (inactive)
GI50 [50]: > 100 µM (inactive)
GI50 [51]: > 100 µM (inactive)
GI50 [52]: > 100 µM (inactive)
GI50 [53]: > 100 µM (inactive)
GI50 [54]: > 100 µM (inactive)
GI50 [55]: > 100 µM (inactive)
GI50 [56]: > 100 µM (inactive)
GI50 [57]: > 100 µM (inactive)
GI50 [58]: > 100 µM (inactive)

O=C(C=P(c1ccccc1)(c1ccccc1)c1ccccc1)c1ccc(-c2cccc([N+](=O)[O-])c2)cc1
GI50 [1]: 4.46 µM (inactive)
GI50 [2]: 3.85 µM (inactive)
GI50 [3]: 1.63 µM (inactive)
GI50 [4]: 1.87 µM (inactive)
GI50 [5]: 3.35 µM (inactive)
GI50 [6]: 3.02 µM (inactive)
GI50 [7]: 3.06 µM (inactive)
GI50 [8]: 5.86 µM (inactive)
GI50 [9]: 6.07 µM (inactive)
GI50 [10]: 4.51 µM (inactive)
GI50 [11]: 3.13 µM (inactive)
GI50 [12]: 2.74 µM (inactive)
GI50 [13]: 2.65 µM (inactive)
GI50 [14]: 4.9 µM (inactive)
GI50 [15]: 2.61 µM (inactive)
GI50 [16]: 4.98 µM (inactive)
GI50 [17]: 2.96 µM (inactive)
GI50 [18]: 4.65 µM (inactive)
GI50 [20]: 1.66 µM (inactive)
GI50 [21]: 3.23 µM (inactive)
GI50 [22]: 3.85 µM (inactive)
GI50 [23]: 2.05 µM (inactive)
GI50 [24]: 2.98 µM (inactive)
GI50 [25]: 2.88 µM (inactive)
GI50 [26]: 3.13 µM (inactive)
GI50 [27]: 1.75 µM (inactive)
GI50 [28]: 3.6 µM (inactive)
GI50 [29]: 4.03 µM (inactive)
GI50 [30]: 2.69 µM (inactive)
GI50 [32]: 2.22 µM (inactive)
GI50 [33]: 4.2 µM (inactive)
GI50 [34]: 2.82 µM (inactive)
GI50 [35]: 2.09 µM (inactive)
GI50 [36]: 2.11 µM (inactive)
GI50 [37]: 3.27 µM (inactive)
GI50 [38]: 3.61 µM (inactive)
GI50 [39]: 2.29 µM (inactive)
GI50 [40]: 3.94 µM
GI50 [41]: 2.21 µM (inactive)
GI50 [42]: 3.84 µM (inactive)
GI50 [43]: 5.01 µM (inactive)
GI50 [45]: 1.75 µM (inactive)
GI50 [46]: 3.91 µM (inactive)
GI50 [47]: 2.16 µM (inactive)
GI50 [48]: 2.39 µM (inactive)
GI50 [49]: 3.48 µM (inactive)
GI50 [50]: 3.69 µM (inactive)
GI50 [51]: 3.57 µM (inactive)
GI50 [52]: 5.07 µM (inactive)
GI50 [53]: 3.6 µM (inactive)
GI50 [54]: 2.57 µM (inactive)
GI50 [55]: 3.64 µM (inactive)
GI50 [56]: 2.79 µM (inactive)
GI50 [57]: 4.36 µM (inactive)
GI50 [58]: 1.91 µM (inactive)
